“Also recorded” adds a separate entry of the source. Read-outs that look alike come from different tables or passages of the source.

One series has as its system H. pylori infection. The series can be described thus: Volunteers with confirmed H. pylori infection taking the calcium salt with a milk drink (Example 4). The following applies: after two-week treatment. In kind it is in vivo, human.
In a further series the test system is gastrin. The note with it: infected with H. pylori then alpha-ketoglutarate, versus control group (PBS); p<0.01.
A short description of series [1]: Morphology of stomach and small intestine mucosa in mice given alpha-ketoglutarate. In kind it is in vivo. The note with it: mice infected with H. pylori and following inoculation with alpha-ketoglutarate.
The test system of series [2] is bacteria from Helicobacter genus (16S rDNA). Nature of the series: 16S rDNA PCR, DGGE and sequencing of stomach mucosa homogenates (Example 2). The following applies: for H. pylori DNA / sequences specific for H. pylori in PCR products: infected mice treated with alpha-ketoglutarate (Group III B), ethidium bromide staining. The class given is in vivo, BALB/cA mice. As for the experimental part:
(§1) DNA was also isolated to perform PCR with primers (5′-[…]-3′ and 5′-[…]-3′) recognizing 16S rDNA fragment in DNA of bacteria from Helicobacter genus. Afterwards PCR products in size 470 by were separated according to denaturating gradient gel electrophoresis technique (DGGE) and sequenced. […] Electrophoresis run at a temp of 60° C. in 125 V during 16 h.

The test system of series [3] is H. pylori, strain 119/95.
Description: Laboratory experimental animals: twenty eight 6 week-old BALB/cA (female) mice weighing 25±2 g (FIG. 1). […] Two weeks after the last challenge, seven mice were inoculated intragastrically for nine successive days by the same method with a solution of calcium or sodium salt of alpha-ketoglutaric acid (0.2 ml, at concentration 30 mM) (group I A). The remaining seven mice were sham-treated with 0.01 M phosphorate buffer—PBS (group I B) as animals from group I A.
Further fourteen mice from group II A and II B were treated with 0.2 ml PBS according to the scheme operating by the infection of the animals with H. pylori. Two weeks after the above treatment seven mice were continuously inoculated with PBS (0.2 ml) for three consecutive days. The remaining seven mice were treated with a solution of salts of alpha-ketoglutaric acid (0.2 ml, concentration 30 mM) (group II A).
On the 30th day of the experiment all mice were sacrificed using CO2. For further analyses blood and stomach samples from mice infected with H. pylori with or without the following inoculation with salts of alpha-ketoglutaric acid were collected. In this experiment the relationship between colonisation level of mouse stomach mucosa (n=28) by H. pylori and the mice treated intragastrically with salts of alpha-ketoglutaric acid were studied in accordance with the time regime as described above.
37° C., under microaerophilic conditions for 7-10 days. From the half of the antrum gastric mucosa was scraped off and mixed with 500 μl PBS sterilized. After homogenate balancing it was noticed that the amount of the scraped mucosa from the half of the antrum was generally between 40 μg a 50 μg. For calculation of number of H. pylori cells, a 100 μl of gastric mucosa homogenate was smeared onto GAB-CAMP agar plates and incubated at temp. 37° C., for 5-10 days, under microaerophilic conditions. Homogenized mucosa samples from each mouse were examined in triplicate. The results are presented as the mean value±SD. The presence of H. pylori was identified by colony morphology and urease-, oxidase- and catalase tests, as well as by morphological examination of cells by Gram-staining.
Series [4] has as its system H. pylori, strain 119/95. The series can be described thus: Mice infectious model with H. pylori, three intragastric doses of alpha-ketoglutaric acid salts, culture on GAB-CAMP agar (Example 2). The following applies: for H. pylori colonies cultured from gastric mucosa: infected mice treated 3 consecutive days, 8 days after infection (Group III B); for effect on colonisation of gastric mucosa by H. pylori: three intragastric administrations on 3 consecutive days, started 8 days after last infective dose. The class given is in vivo, BALB/cA mice. As for the experimental part:
Eight days after the last challenge, sixteen mice were inoculated intragastrically through the tube for three successive days with 0.2 ml of 30 mM solution of salts of alpha-ketoglutaric acid (group III B). The remaining eight mice were sham-treated with 0.2 ml of 0.01 M PBS (group III) according to the procedure with group III.
Eight days after above treatment sixteen mice were inoculated with the tube for three consecutive days with salts of […] (0.2 ml, concentration 30 mM) (group IV B). The remaining eight mice were treated with 0.2 ml 0.01 M PBS (group IV).
Stomach and blood were samples were collected for the further studies.
as §1

The test system of the next series is lactic acid bacteria. The series can be described thus: Lactic acid bacteria isolated from scraped stomach mucosa (antral part). The class given is in vivo. The note with it: animals tested, including mice infected with H. pylori and then inoculated with alpha-ketoglutarate.
The conditions of series [5]: 2-3 years old rats with low initial blood AKG (below 0.1 ug/ml), feed additive; controls did not survive; cited from earlier work.
[6] abbreviates: PBS + AKG (Group IV B), non-infected mice.
Setting [7] is: listed as salts of alpha-ketoglutaric acid.
Where [8] appears, read: PBS + AKG (Group II A), non-infected mice.

With `O=C(O)CCC(=O)C(=O)O` [AKG, alpha-ketoglutarate], the “time for which lack of dyspepsia symptoms was maintained after end of administration” value in the series on H. pylori infection is reported as “one”. Moreover, in the series with cholecystokinin (CCK) (H. pylori + alpha-ketoglutarate versus alpha-ketoglutarate only, p=0.25), the “differences in number of CCK-producing cells in the small intestine” value was “no significant differences”. For the same compound, in the series with cholecystokinin (CCK) (animals treated with alpha-ketoglutarate versus non-infected mice given only PBS, tendency, p=0.1), the “decrease in number of CCK producing cells in the small intestine” value is reported as 30%. In addition, in the series with gastrin, the “reduction in the number of gastrin-producing cells in the pyloric region of the stomach glands” value came to 17%. Also, in [1], the “morphological changes in thickening of mucosa in stomach and small intestine, villus width and crypt depth” value is given as “no morphological changes”. The “16S rDNA PCR - Helicobacter genus: Number of mice with H. pylori DNA/in group” value in series [2] (H. pylori + AKG (Group III B)) and in series [2] (setting [6]) was 0/16 throughout. Moreover, the “H. pylori DNA / sequences specific for H. pylori in PCR products” value in series [2] is recorded as “no H. pylori DNA was found”; in series [2] (setting [7]) it was “not found”. The “H. pylori cultivated: Number of mice infected/in group” value is 7/7 in the series on H. pylori, strain 119/95 [3] (H. pylori + AKG (Group I A), 0.2 ml 30 mM intragastrically for 9 days starting 2 weeks after last challenge, day 30); 0/7 in the series with H. pylori, strain 119/95 [3] (setting [8]); 0/16 with H. pylori, strain 119/95 [4] (H. pylori + AKG (Group III B), 0.2 ml 30 mM intragastrically for 3 days starting 8 days after last challenge, day 20); 0/16 in the series with H. pylori, strain 119/95 [4] (setting [6]). The “H. pylori cultivated: Number of bacteria (cfu)/mouse” value is on record as 3.8 × 10^2 ± 5.0 × 10^1 cfu/mouse in the series with H. pylori, strain 119/95 [3] (H. pylori + AKG (Group I A), mean ± SD, H. pylori + PBS gave 7.8 × 10^2 ± 5.0 × 10^1); 0 cfu/mouse in the series on H. pylori, strain 119/95 [3] (setting [8]); 0 cfu/mouse in the series on H. pylori, strain 119/95 [4] (H. pylori + AKG (Group III B), H. pylori + PBS gave 4.3 × 10^2 ± 5.0 × 10^1); 0 cfu/mouse in the series with H. pylori, strain 119/95 [4] (setting [6]). The “number of colonies (mean±SD) isolated from antral/pyloric part of gastric mucosa” value in the series on H. pylori, strain 119/95 [3] (infected mice treated 9 days (Group I A), infected only 7.8×10^2±5.0×10^1) was 3.8×10^2±5.0×10^1. Further, the “reduction of degree of gastric mucosa colonisation by H. pylori” value with H. pylori, strain 119/95 [3] (nine intragastric administrations on 9 consecutive days, started 14 days after last infective dose, versus mice infected only) worked out at 49%. Further, the “H. pylori colonies cultured from gastric mucosa” value in the series with H. pylori, strain 119/95 [4] is “no H. pylori colonies were found”; in the series with H. pylori, strain 119/95 [4] (setting [7]), “not found; also recorded: no H. pylori colony was cultured”. Besides, the “effect on colonisation of gastric mucosa by H. pylori” value is “completely stopped colonisation and fully eradicated H. pylori” in the series on H. pylori, strain 119/95 [4]; “total inhibitory effect on bacterial colonisation and fully eradication of H. pylori bacteria from gastric mucosa” with H. pylori, strain 119/95 [4] (setting [7]). Moreover, the “changes in the amount of lactic acid bacteria isolated from scraped stomach mucosa (antral part)” value in the series with lactic acid bacteria is “no changes”.

As to `O.O.O=C([O-])CCC(=O)C(=O)[O-].[Na+].[Na+]` [Na2AKG*2H2O], the “survival of the experiment” value in series [5] is listed as “survived the experiment”.

The record behind these values is patent publication US20100124537A1 (priority 2007, published 2010).
